According to publication PMC10603992, “Antimicrobial and Adjuvant Potencies of Di-n-alkyl Substituted Diazalariat Ethers” (Antibiotics, 2023):
Converted amounts (≈) assume the structure as drawn. Like-named read-outs stand apart in the source and are kept apart here. Blank lines part the entries; values can stand above or below the compound they belong to.

Experiments:
[1] = general value, no reference given; cited from earlier work
DH5α E. coli = test: MIC against DH5α E. coli; assay type: cell-based; details: Escherichia coli, read-out: Minimum inhibitory concentration against DH5α E. coli
[2] = Turbidimetric solubility limit in MHII or PBS; assay type: physicochemical; details: DMSO ≤0.5%
K12 E. coli = test: MIC against K12 E. coli; assay type: cell-based; details: MHII media, 90% growth inhibition, read-out: MIC K12 E. coli
Tet^R E. coli = test: MIC against Tet^R E. coli; assay type: cell-based; details: Escherichia coli, read-out: MIC Tet^R E. coli
S. aureus [3] = test: MIC against S. aureus under various pH and media conditions; assay type: cell-based, Staphylococcus aureus; details: for Change in MIC as the pH was increased from 6.4 to 8.4: S. aureus, Mueller Hinton medium
[4] = system: human embryonic kidney (HEK-293) cells; test: Cytotoxicity against HEK-293 cells; assay type: cell-based; details: three independent trials
Source text: (§1) The potential toxicity of 1–6 is a critical factor in their application either as an antimicrobial or an adjuvant. In vitro toxicity studies were therefore conducted using human embryonic kidney (HEK-293) and simian kidney (COS-7) cells. The graphs shown in Figure 20 show the percentage survival of each cell type as a function of lariat ether concentration on the logarithmic x-axis. In each graph, the IC50 value is specified for each compound and cell type. The value of IC50 is the concentration of lariat ether that inhibits the growth of 50% of the cells studied.
(§2) The cytotoxicity experiments were conducted as described in [44].

S. aureus 1199B [5] = test: Checkerboard combination with norfloxacin; assay type: cell-based, Staphylococcus aureus
Source text: Each of the checkerboard analyses shown in Figure 7 combines one of 1–6 with norfloxacin. S. aureus 1199B is resistant to norfloxacin. By combining varying concentrations of both norfloxacin and a lariat ether or lariat ether derivative, potency enhancement, if any, can be determined. In the graphs (checkerboards) shown, the potency of each concentration combination can be assessed visually.
In both cases, the concentrations varied by a factor of two. Four controls were employed on each checkerboard plate: full growth (only cells), no growth (only media), and then a column for each drug alone to accurately reflect their individual MIC values. The concentrations of amphiphile and antibiotic tested were ½, ¼, ^1/8, ^1/16, and ^1/32 of the MIC. Preparation of the stock solutions and plates was by the same method described in the minimum inhibitory concentration section.

S. aureus 1199B [6] = test: MIC against S. aureus 1199B; assay type: cell-based, Staphylococcus aureus; details: for MIC: Staphylococcus aureus, 1199B, read-out: MIC S. aureus 1199B, MHII media, 90% growth inhibition
[7] = system: simian kidney (COS-7) cells; test: Cytotoxicity against COS-7 cells; assay type: cell-based; details: Chlorocebus aethiops, COS-7, percentage survival, three independent trials
Source text: as §1, §2

S. aureus (1199B) = test: Membrane permeability (propidium iodide / alamar blue); assay type: cell-based, Staphylococcus aureus; details: compound at ½ MIC
Method: Membrane permeability was assessed by using the dyes propidium iodide and alamar blue. […] However, when PI does enter a cell, it intercalates within the DNA structure. […] When intercalation occurs, a strong fluorescent emission can be detected. Alamar blue, based on resazurin, is a nontoxic weakly fluorescent dye that is sensitive to reduction potential within vital cells. When reduced, it is converted into highly fluorescent resorufin (7-hydroxy-3H-phenoxazin-3-one).
The combination of alamar blue and propidium iodide allowed us to assess the membrane permeability of S. aureus while confirming cellular vitality. Results of the PI/alamar blue studies with S. aureus are summarized in the graph of Figure 5. When S. aureus (1199B) was exposed to the two dyes, penetration of PI was relatively low and cellular vitality remained high. […] In general, cellular penetration and vitality correlated.
Membrane permeability studies were conducted as detailed in [48].

[8] = target: T1, NorA efflux pumps in S. aureus 1199B (Staphylococcus aureus, UniProt P0A0J7); test: Efflux pump inhibition (EthBr accumulation); assay type: cell-based; details: 3 at […] µM vs reserpine at 50 µg/mL (80 µM)
T1 construct: Increase in EthBr fluorescence observed by its accumulation in S. aureus 1199B cytosol; endogenous in cells; host or cells: Staphylococcus aureus 1199B (whole bacteria)
Source text: An important reason for the choice of S. aureus 1199B for study is that its resistance to norfloxacin is known to result from the presence of the Nor A efflux pump. Efflux pumps require regulated ion balance to function so that exogeneous substances such as antibacterials can effectively be ejected. Ethidium bromide (EthBr) can penetrate bacteria and is detectable by its fluorescence. To the extent that ion homeostasis is disrupted, ion balance is deregulated, and efflux pump function is compromised or inhibited.
Experimental details have been reported in [44].

S. aureus [9] = test: Membrane depolarization by DiBAC4(3) fluorescence; assay type: cell-based, Staphylococcus aureus; details: compound at ½ MIC
Method: Disruption of ion homeostasis by 1–6 should be apparent in the associated membrane depolarization. […] The dye is readily absorbed by bacteria owing to the negative internal potential. Disruption of ion homeostasis will affect both proton and potassium cation regulation. The internalized, self-quenched dye will be released and increased fluorescence will be observed.
Two types of experiments were performed to assess membrane depolarization. […] If ion homeostasis is affected by the presence of any of these compounds, the fluorescent response should increase as the lariat ether concentration increased.
A second series of experiments was performed to determine the relationship of disrupted ion homeostasis, as reflected in membrane depolarization with cellular vitality (Figure 17). […] Alamar blue (see above) was used to determine cell viability. No depolarization was apparent in the S. aureus control in the absence of a lariat ether or lariat ether derivative. Depolarization was greatest for C10LE•MeI (3). […] We note that the MIC values for S. aureus observed for 2, 3, 5, and 6 were similar.
The membrane depolarization study was conducted as described in [48].

[10] = Dynamic light scattering of C12LE aggregation; assay type: physicochemical; details: for Slope of C12LE aggregation (DLS particle size): water, in the presence of the antimicrobial or C12LE alone
Method: It is known that dialkyldiazacrowns form stable aggregates in aqueous solution [57, 62]. It was hypothesized that complexation between antimicrobials and macrocycles would alter or prevent the ability of the complex to form aggregates. […] Indeed, the particle sizes observed when chlortetracycline is present was almost indistinguishable from particle formation by C12LE (4) alone.
Measurements were performed on a Brookhaven Instruments Corp. ZetaPALS instrument at 25 °C using a 660 nm laser and correlating scattering at 90°. Samples were prepared by initially dissolving the amphiphile in filtered DMSO obtained from ThermoFisher. Next, they were diluted into 1× PBS such that DMSO was fixed at 0.5% in 15 mL sterile conical tubes. 10× PBS was obtained commercially, then diluted 10-fold in MQ H2O. The mixture was vortexed and incubated at room temperature for 2 h, then transferred to a clean quartz cuvette and equilibrated in the instrument for 10 min at 25 °C. Ten measurements consisting of 2 min runs were made on each sample. The average effective diameter was calculated with standard error reported for at least three trials.

[11] = Staphylococcus aureus, MH + Ca2+, read-out: MIC S. aureus, MH + Ca^2+
[12] = Homo sapiens, HEK293, percentage survival
[13] = no additional antimicrobial, MICs in table limited to […]
[14] = Mueller Hinton II broth, 37 °C, pH 7.3, plasma or biological fluid, kinetic from dmso stock, Mueller Hinton II, pH 7.3, 2 h at 37 °C, read-out: Solubility limit in MHII
[15] = phosphate-buffered saline, 37 °C, aqueous buffer, kinetic from dmso stock, phosphate-buffered saline, 2 h at 37 °C, read-out: Solubility limit in PBS
[16] = Staphylococcus aureus, pH 6.4, MHII, pH 6.4, read-out: MIC S. aureus, MHII pH 6.4
[17] = Staphylococcus aureus, pH 7.4, MHII, pH 7.4, read-out: MIC S. aureus, MHII pH 7.4
[18] = Staphylococcus aureus, pH 8.4, MHII, pH 8.4, read-out: MIC S. aureus, MHII pH 8.4

SMILES: CC1(C)S[C@@H]2[C@H](NC(=O)[C@H](N)c3ccccc3)C(=O)N2[C@H]1C(=O)O [Ampicillin, ampicillin]
pKa of the carboxyl groups [1]: 2.6–2.8

SMILES: CCCCCCCCCCN1CCOCCOCCN(CCCCCCCCCC)CCOCCOCC1 [C10LE (1), N,N′-Di-n-decyl-4-13-diaza-18-crown-6]
MIC (DH5α E. coli): 11 µM (≈ 5.97 µg/mL)
solubility at 2 h ([2]; Mueller Hinton II, pH 7.3, 2 h at 37 °C, read-out: Solubility limit in MHII): ≥128 µM
solubility at 2 h ([2]; phosphate-buffered saline, 2 h at 37 °C, read-out: Solubility limit in PBS): ≥128 µM
MIC (K12 E. coli): 10 µM (≈ 5.43 µg/mL)
MIC (Tet^R E. coli): 8 µM (≈ 4.34 µg/mL)
MIC (S. aureus [3]; MH medium, read-out: MIC S. aureus, MH): 16 µM (≈ 8.69 µg/mL)
MIC (S. aureus [3]; MHII, pH 6.4, read-out: MIC S. aureus, MHII pH 6.4): 16 µM (≈ 8.69 µg/mL)
MIC (S. aureus [3]; MHII, pH 7.4, read-out: MIC S. aureus, MHII pH 7.4): ≥16 µM
MIC (S. aureus [3]; MHII, pH 8.4, read-out: MIC S. aureus, MHII pH 8.4): 32 µM (≈ 17.4 µg/mL)
Change in MIC as the pH was increased from 6.4 to 8.4 (S. aureus [3]): changes in MIC were observed
MIC (S. aureus [3]; [11]): 16 µM
IC50 [4, 12]: 13 µM
IC50 ([4]; percentage survival): ≤ 10 µM
Norfloxacin concentration required to effect 90% growth inhibition (S. aureus 1199B [5]; lariat ether co-administered at 2 µM): 0.5 µM
Fold increase in the potency of norfloxacin (S. aureus 1199B [5]; norfloxacin-resistant S. aureus 1199B, checkerboard): 128 fold
MIC S. aureus 1199B (S. aureus 1199B [6]; MHII media, 90% growth inhibition): 8 µM (≈ 4.34 µg/mL)

SMILES: CCCCCCCCCC[N+]1(C)CCOCCOCC[N+](C)(CCCCCCCCCC)CCOCCOCC1 (stereo not shown) [C10LE•2MeI (3), N,N′-Di-n-decyl-4-13-diaza-18-crown-6 bis(methiodide)]
MIC (DH5α E. coli; [13]): 24 µM
solubility at 2 h [2, 14]: 64 µM
solubility at 2 h [2, 15]: ≥ 128 µM
IC50 [7]: 53 µM
MIC (K12 E. coli; Escherichia coli): 16 µM
MIC (Tet^R E. coli): 32 µM
Change in MIC as the pH was increased from 6.4 to 8.4 (S. aureus [3]): unchanged
MIC (S. aureus [3]; [11]): 16 µM
MIC (S. aureus [3]; Staphylococcus aureus, MH medium, read-out: MIC S. aureus, MH): 2 µM
MIC (S. aureus [3]; [16]): 2 µM
MIC (S. aureus [3]; [17]): 2 µM
MIC (S. aureus [3]; [18]): 2 µM
IC50 [4, 12]: 36 µM
PI penetration (membrane permeability) (S. aureus (1199B)): good penetration
Potency as efflux pump inhibitor relative to reserpine [8]: approximately five times more potent
MIC (S. aureus 1199B [6]): 1 to 2 µM
Membrane depolarization (DiBAC4(3) fluorescence) (S. aureus [9]): greatest

SMILES: CCCCCCCCCCCC[N+]1(C)CCOCCOCC[N+](C)(CCCCCCCCCCCC)CCOCCOCC1 (stereo not shown) [C12LE•2MeI (6), N,N′-Di-n-dodecyl-4-13-diaza-18-crown-6 bis(methiodide)]
MIC (DH5α E. coli; [13]): 2 µM
solubility at 2 h [2, 14]: 1 to 2 µM
solubility at 2 h [2, 15]: ≥ 128 µM
IC50 [7]: 25 µM
MIC (K12 E. coli; Escherichia coli): 4 µM
MIC (Tet^R E. coli): 16 µM
Change in MIC as the pH was increased from 6.4 to 8.4 (S. aureus [3]): unchanged
MIC (S. aureus [3]; [16]): 2 µM
MIC (S. aureus [3]; [17]): 2 µM
MIC (S. aureus [3]; [18]): 2 µM
IC50 [4, 12]: 11 µM
IC50 ([4]; percentage survival): ≤ 10 µM
PI penetration (membrane permeability) (S. aureus (1199B)): level of PI penetration similar to that observed for S. aureus alone
MIC (S. aureus 1199B [6]): 1 µM

Slope of C12LE aggregation (DLS particle size) [10]: 3.2
SMILES: CO/N=C(\C(=O)N[C@@H]1C(=O)N2C(C(=O)[O-])=C(C[N+]3(C)CCCC3)CS[C@H]12)c1csc(N)n1 [Cefepime, cefepime]

Slope relative to the particle size profile of C12LE alone ([10]; DLS): about 60%
Slope of C12LE aggregation (DLS particle size) [10]: 1.8
SMILES: O=C(O)c1cn(C2CC2)c2cc(N3CCNCC3)c(F)cc2c1=O [Ciprofloxacin, ciprofloxacin]

Slope of C12LE aggregation (DLS particle size) [10]: 2.5
SMILES: NC[C@H]1O[C@H](O[C@H]2[C@H](O)[C@@H](O[C@H]3O[C@H](CO)[C@@H](O)[C@H](N)[C@H]3O)[C@H](N)C[C@@H]2N)[C@H](O)[C@@H](O)[C@@H]1O [Kanamycin, kanamycin]
